Experimental data published in patent publication US20230090708A1, “METHODS AND COMPOSITIONS FOR THE TREATMENT OF HEMANGIOMA” (MASSEY VENTURES LIMITED, priority 2020, published 2023).
In brackets after ≈: the same amount, converted by molar mass. Like-named read-outs stand apart in the source and are kept apart here.

Key:
[1] = cited from earlier work; for Half life: in vivo; for Half life: short or long acting: in words
[2] = tested on: proliferating hemangioma cell lines (n=9); test: Example 6: single agents and combinations on nine primary cell lines, MTT, CompuSyn combination index; format: cell-based, human; details: for dose-response across all cell lines: 1 to 10 μM, 72 hours, n=9
Method: (§1) An in vitro cell culture model of infantile hemangioma was developed to assess the impact of renin-angiotensin system inhibitors on cellular proliferation. A primary cell line of proliferating infantile hemangioma cells, including haemangioma stem cells, was derived from a tissue biopsy obtained from patients during the proliferating phase of the disease. The primary cell lines are cultured in 25 cm^2 flasks using standard culture media and conditions. The cultured cells are used to seed 96-well plates with a seed cell concentration of 2500 or 5000 cells per well, with additional culture media (200 μL). All studies are performed in triplicate.
(§2) The plates are incubated overnight to allow cell adherence to the wells. The wells are photographed to confirm cell adherence and confluency. The appropriate drug(s) to be examined are subsequently added to the wells. After 24 hours, one set of plates (experimental and blank) is stopped. The media is aspirated from each well and stored frozen for possible future analyses. Media is added to the wells and an MTT determination is undertaken according to standard protocols. This is repeated at 48 and 72 hours.
(§3) From the triplicate incubations of each drug concentration at each time, as well as for all controls, the mean±standard deviation is calculated. The net survival (optical density value) is calculated by subtracting the appropriate blank mean value from each cell culture. From the MTT data, the percentage of survival of cells in the presence of each concentration of drug after each time of culturing is determined.
A study was undertaken using combinations of ACE inhibitors, beta blockers and angiotensin II type 2 receptor blockers to inhibit proliferating hemangioma cells. […] Patient histories pertaining to each cell line is described in Table 5.
The experimental protocol was performed as per Example 1. Briefly, cells were seeded in 96-well plates at concentrations of 2500 cells/well in triplicate for each drug and drug combination. Drug(s) were added to each well 24 hours after seeding and re-dosed every 24 hours. Cell viability was assessed by MTT assay after 24, 48, and 72 hours. All plates were performed in triplicate. Drugs were assessed alone and in combination, as described in Table 6. Propranolol was used as a model beta blocker, cilazapril as a model ACE inhibitor, and SMM02 (L-159686) as a model AT2Ri. Synergy was measured using the CompuSyn open-source software protocol for quantifying synergism and antagonism that uses the median-effect equation and mass-action laws to generate a combination index (www.compusyn.com). Synergism, additive effects and antagonism are defined as a CI<1, CI=1, and CI>1, respectively.

[3] = tested on: proliferating hemangioma cells; test: Example 5: R- and S-beta blockers alone and with cilazapril, MTT; format: cell-based, human
Method: An in vitro cell culture model of infantile hemangioma was developed to assess the impact of renin-angiotensin system inhibitors on cellular proliferation. A primary cell line of proliferating infantile hemangioma cells, including haemangioma stem cells, was derived from a tissue biopsy obtained from patients during the proliferating phase of the disease. The primary cell lines are cultured in 25 cm^2 flasks using standard culture media and conditions. The cultured cells are used to seed 96-well plates with a seed cell concentration of 2500 or 5000 cells per well, with additional culture media (200 μL). All studies are performed in triplicate. The plates are incubated overnight to allow cell adherence to the wells. The wells are photographed to confirm cell adherence and confluency. The appropriate drug(s) to be examined are subsequently added to the wells. After 24 hours, one set of plates (experimental and blank) is stopped. The media is aspirated from each well and stored frozen for possible future analyses. Media is added to the wells and an MTT determination is undertaken according to standard protocols. This is repeated at 48 and 72 hours. From the triplicate incubations of each drug concentration at each time, as well as for all controls, the mean±standard deviation is calculated. The net survival (optical density value) is calculated by subtracting the appropriate blank mean value from each cell culture. From the MTT data, the percentage of survival of cells in the presence of each concentration of drug after each time of culturing is determined. The experimental protocol was performed as per Example 1. Briefly, cells were seeded in 96-well plates at concentrations of 2500 cells/well in triplicate for each drug and drug combination. Drug(s) were added to each well 24 hours after seeding and re-dosed every 24 hours. Cell viability was assessed by MTT assay after 24, 48, and 72 hours. All plates were performed in triplicate. […] Timolol and propranolol were used as model beta blockers and cilazapril as a model ACE inhibitor.

[4] = tested on: proliferating hemangioma cells; test: Experiment 7: different ACEi and beta blockers on one primary cell line, MTT; format: cell-based, human; details: for Results Summary: 72 hours, one cell line; for inhibition of proliferating hemangioma cells: 1 μM and 10 μM; for inhibition at 1 µM / inhibition at 10 µM: Homo sapiens, 72 h, read-out: Inhibition vs. Cells + Adjuvant at 72 Hours
Method: as §1
as §2, with “After 24 hours, one set of plates (experimental and blank) is stopped.” left out, “protocols.” for “protocols. This is repeated at 48 and 72 hours.”
as §3
Briefly, cells were seeded in 96-well plates at concentrations of 2500 cells/well in triplicate for each drug and drug combination. […] All plates were performed in triplicate. Beta blockers used in the study were (±)-propranolol, R-propranolol, S-propranolol, timolol, and betaxalol.

[5] = tested on: proliferating infantile hemangioma cells derived from multiple patients (n=5); test: Example 4: single agents and combinations on five patient-derived cell lines, MTT; format: cell-based, human; details: for Individual Responders at 72 Hours with ≥30% Inhibition vs. Cells + Adjuvant: responders/cell lines; for Results Summary: 72 hours, n=5 cell lines; for Estimated Optimal Dosage Range in vitro / inhibition of all five patient-derived haemangioma cell lines: single agent
Method: An in vitro cell culture model of infantile hemangioma was developed to assess the impact of renin-angiotensin system inhibitors on cellular proliferation. A primary cell line of proliferating infantile hemangioma cells, including haemangioma stem cells, was derived from a tissue biopsy obtained from patients during the proliferating phase of the disease. The primary cell lines are cultured in 25 cm^2 flasks using standard culture media and conditions. The cultured cells are used to seed 96-well plates with a seed cell concentration of 2500 or 5000 cells per well, with additional culture media (200 μL). All studies are performed in triplicate. The plates are incubated overnight to allow cell adherence to the wells. The wells are photographed to confirm cell adherence and confluency. The appropriate drug(s) to be examined are subsequently added to the wells. After 24 hours, one set of plates (experimental and blank) is stopped. The media is aspirated from each well and stored frozen for possible future analyses. Media is added to the wells and an MTT determination is undertaken according to standard protocols. This is repeated at 48 and 72 hours. From the triplicate incubations of each drug concentration at each time, as well as for all controls, the mean±standard deviation is calculated. The net survival (optical density value) is calculated by subtracting the appropriate blank mean value from each cell culture. From the MTT data, the percentage of survival of cells in the presence of each concentration of drug after each time of culturing is determined. […] The experimental protocol was performed as per Example 1. Briefly, cells were seeded in 96-well plates at a concentration of 2500 cells/well in triplicate for each drug and drug combination. Drug(s) were added to each well 24 hours after seeding and re-dosed every 24 hours. Cell viability was assessed by MTT assay after 24, 48, and 72 hours. All plates were performed in triplicate. Drugs were assessed alone and in combination as described in Table 3.

[6] = cited from earlier work
proliferating IH = details: cited from earlier work
[7] = cited from earlier work; remark: listed apart in the source
[8] = cited from earlier work; for Log P: Table 1

## C[C@H](N[C@@H](CCc1ccccc1)C(=O)O)C(=O)N1[C@H](C(=O)O)C[C@H]2CCCC[C@@H]21 [Trandolaprilat, trandolaprilat]
[1]
  Half life: 10 h

## C[C@H](N[C@@H](CCc1ccccc1)C(=O)O)C(=O)N1[C@H](C(=O)O)C[C@@H]2CCC[C@@H]21 [Ramiprilat, ramiprilat]
[1]
  Half life: 13 to 17 h

## O=C(O)CN1C(=O)[C@@H](N[C@@H](CCc2ccccc2)C(=O)O)CCc2ccccc21 [benazeprilat]
[1]
  Half life: 10 to 11 h

## CC(C)NCC(O)COc1cccc2ccccc12 (stereo not drawn) [S(−) Propranolol, S-propranolol]
[2]
  dose-response across all cell lines: typical dose-response
[3]; alone
  individual isomers compared with the racemic mixture: as effective alone as the racemic mixture
[3]; particularly at 1-5 μM
  attenuating hemangioma cell proliferation, propranolol vs timolol enantiomers: superior to R- and S-timolol
[4]
  Estimated Optimal Dosage Range: 1 to 10 µM
  Results Summary: Responder
[4]; 1 μM
  Inhibition vs. Cells + Adjuvant at 72 Hours: 1 μM - No - 2.07%
[4]; 10 μM
  Inhibition vs. Cells + Adjuvant at 72 Hours: 10 μM - Response - 45.68%

## C[C@H](N[C@@H](CCc1ccccc1)C(=O)O)C(=O)N1CCC[C@H]1C(=O)O [enalaprilat]
[1]
  Half life: 11 h (enalaprilat)

## COc1ccc2c(c1OCc1ccccc1)C[C@@H](C(=O)O)N(C(=O)C(c1ccccc1)c1ccccc1)C2 [EMA401, (S)-5-(benzyloxy)-2-(2,2-diphenylacetyl)-6-methoxy-1,2,3,4-tetrahydroisoquinoline-3-carboxylic acid]
[5]; 1 μM
  Individual Responders at 72 Hours with ≥30% Inhibition vs. Cells + Adjuvant: 1 μM - ¼
[5]; 10 μM
  Individual Responders at 72 Hours with ≥30% Inhibition vs. Cells + Adjuvant: 10 μM - 4/5
[5]; 100 μM
  Individual Responders at 72 Hours with ≥30% Inhibition vs. Cells + Adjuvant: 100 μM - 5/5
[5]
  Results Summary: Responder
  Estimated Optimal Dosage Range in vitro: 5 to 25 µM
  inhibition of all five patient-derived haemangioma cell lines: significantly inhibited

## C[C@H](CS)C(=O)N1CCC[C@H]1C(=O)O [Captopril]
[6]
  Solubility: 130 mg/mL (≈ 598 mM)
Proliferating IH; n of eight patients
  patients with response scored dramatic: 3
  patients with response scored medium: 2
  patients with response scored slow: 3
Proliferating IH; oral 1.5 mg/kg daily, eight patients
  effect on proliferating IH: positive effect in all patients
Proliferating IH; treatment ceased after 14 months
  rebound growth after treatment ceased: no rebound growth

## O=C(O)[C@@H]1CN(C(=O)N(c2ccccc2)c2ccccc2)CCN1C(=O)N(c1ccccc1)c1ccccc1 [SMM02, (S)-1,4-bis(N,N-diphenylcarbamoyl)piperazine-2-carboxylic acid]
[2]
  dose-response across all cell lines: non-linear dose-response
[2]; single agent, consistent inhibition above it
  threshold concentration: 2.5 µM
[5]; 1 μM
  Individual Responders at 72 Hours with ≥30% Inhibition vs. Cells + Adjuvant: 1 μM - 0/4
[5]; 10 μM
  Individual Responders at 72 Hours with ≥30% Inhibition vs. Cells + Adjuvant: 10 μM - 5/5
[5]; 100 μM
  Individual Responders at 72 Hours with ≥30% Inhibition vs. Cells + Adjuvant: 100 μM - 5/5
[5]
  Results Summary: Responder
  Estimated Optimal Dosage Range in vitro: 1 to 10 µM
  inhibition of all five patient-derived haemangioma cell lines: significantly inhibited

## CCOC(=O)[C@H](CCc1ccccc1)N[C@@H](C)C(=O)N1Cc2ccccc2C[C@H]1C(=O)O [Quinapril]
[1]
  Half life: short or long acting: Short acting
[7]
  pKa: 3.7
[7]; second value
  pKa: 5.2
[8]
  Log P: 3.2
  log P: 3.2
[4]
  inhibition of proliferating hemangioma cells: good and similar level of inhibition
  Results Summary: Responder
[4]; 1 μM
  inhibition at 1 µM: 4.87%
[4]; 10 μM
  inhibition at 10 µM: 62.3%

## C[C@H](N[C@@H](CCc1ccccc1)C(=O)O)C(=O)N1Cc2ccccc2C[C@H]1C(=O)O [Quinaprilat, quinaprilat]
[1]
  Half life: 3 h (quinaprilat)

## CCOC(=O)[C@H](CCc1ccccc1)N[C@@H](C)C(=O)N1CCC[C@H]1C(=O)O [Enalapril]
[1]
  Half life: short or long acting: Long acting
[7]
  pKa: 2.97
[7]; second value
  pKa: 5.35
[8]
  Log P: 0.07
[4]
  inhibition of proliferating hemangioma cells: good and similar level of inhibition
  Results Summary: Responder
[4]; 1 μM
  inhibition at 1 µM: 1.55%
[4]; 10 μM
  inhibition at 10 µM: 67.9%

## CCCCc1nc(Cl)c(CO)n1Cc1ccc(-c2ccccc2-c2nn[nH]n2)cc1 [Losartan]
[5]; 1 μM
  Individual Responders at 72 Hours with ≥30% Inhibition vs. Cells + Adjuvant: 1 μM - 0/5
[5]; 10 μM
  Individual Responders at 72 Hours with ≥30% Inhibition vs. Cells + Adjuvant: 10 μM - 0/5
[5]
  Results Summary: Non-Responder
  inhibition of all five patient-derived haemangioma cell lines: not

## CCOC(=O)[C@H](CCc1ccccc1)N[C@@H](C)C(=O)N1[C@H](C(=O)O)C[C@H]2CCCC[C@@H]21 [Trandolapril]
[1]
  Half life: 6 h
  Half life: short or long acting: Long acting
[7]
  pKa: 3.8
[7]; second value
  pKa: 5.2
[8]
  Log P: 3.5
  log P: 3.5
[4]
  inhibition of proliferating hemangioma cells: good and similar level of inhibition
  Results Summary: Responder
[4]; 1 μM
  inhibition at 1 µM: 0.63%
[4]; 10 μM
  inhibition at 10 µM: 67.8%

## CC(C)NCC(O)COc1ccc(CCOCC2CC2)cc1 (stereo not shown) [Betaxolol]
[4]
  inhibition of proliferating hemangioma cells: no response
  Results Summary: Non-
[4]; 1 μM
  inhibition at 1 µM: 2.8%
[4]; 10 μM
  inhibition at 10 µM: < 0%
